Laboratory results taken from ChEMBL document CHEMBL1201862, “PubChem BioAssay data set” (2004).
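Compound exposure: 48 hours, 5 concentrations, 96-well plates. GI50 = concentration required for 50% inhibition of growth.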 Activity calls are given as the source filed them. Cut-off read from the data, not from the text of the source: active = GI50 up to about 1.1 µM and inactive = higher.

How the values were obtained:
Assay in all cases: NCI anticancer screen, dose series, 48 h
MDA-MB-435 = test system: MDA-MB-435
SF-268 = test system: SF-268
EKVX = test system: EKVX
SK-OV-3 = test system: SK-OV-3
HOP-62 = test system: HOP-62
KM12 = test system: KM12
SNB-75 = test system: SNB-75
MCF7 = test system: MCF7
HCT-15 = test system: HCT-15
COLO 205 = test system: COLO 205
SF-539 = test system: SF-539
K562 = test system: K562
HCT-116 = test system: HCT-116
MOLT-4 = test system: MOLT-4
TK-10 = test system: TK-10
CCRF-CEM = test system: CCRF-CEM
M14 = test system: M14
OVCAR-4 = test system: OVCAR-4
RXF 393 = test system: RXF 393
NCI-H226 = test system: NCI-H226

Row | Compound | GI50 (MDA-MB-435) | GI50 (SF-268) | GI50 (EKVX) | GI50 (SK-OV-3) | GI50 (HOP-62) | GI50 (KM12) | GI50 (SNB-75) | GI50 (MCF7) | GI50 (HCT-15) [µM] | GI50 (COLO 205) | GI50 (SF-539) | GI50 (K562) | GI50 (HCT-116) | GI50 (MOLT-4) | GI50 (TK-10) | GI50 (CCRF-CEM) | GI50 (M14) | GI50 (OVCAR-4) | GI50 (RXF 393) | GI50 (NCI-H226)
1 | CC(=O)Oc1ccc(-c2nnc(-c3ccc(OC(C)=O)cc3)nn2)cc1 | > 100 µM (inactive) | > 100 µM (inactive) | 70.5 µM (inactive) | > 100 µM (inactive) | > 100 µM (inactive) | > 100 µM (inactive) | > 100 µM (inactive) | > 100 µM (inactive) | 51.4 | > 100 µM (inactive) | > 100 µM (inactive) | 55.5 µM (inactive) | > 100 µM (inactive) | > 100 µM (inactive) | > 100 µM (inactive) | 40.6 µM (inactive) | > 100 µM (inactive) | > 100 µM (inactive) | > 100 µM (inactive) | > 100 µM (inactive)
2 | O=C1C(=C(C(F)(F)Cl)C(F)(F)Cl)C2CCC1C2 (stereo not drawn) | 1.88 µM (inactive) | 2.41 µM (inactive) | > 10 µM (inactive) | > 10 µM (inactive) | > 9.16 µM (inactive) | 3.01 µM (inactive) | 4.3 µM (inactive) | 2.49 µM (inactive) | 1.98 | 1.67 µM (inactive) | 3.29 µM (inactive) | 0.63 µM (active) | 1.9 µM (inactive) | 0.0131 µM (active) | 1.77 µM (inactive) | 0.00986 µM (active) | 1.16 µM (inactive) | 2.84 µM (inactive) | 1.63 µM (inactive) | > 5.38 µM (inactive)
3 | ClC1(Cl)C2CCOC21n1cnc2ccccc21 (stereo not drawn) | > 100 µM (inactive) | > 100 µM (inactive) | > 100 µM (inactive) | > 100 µM (inactive) | > 100 µM (inactive) | > 100 µM (inactive) | > 100 µM (inactive) | > 100 µM (inactive) | > 100 | > 100 µM (inactive) | > 100 µM (inactive) | > 100 µM (inactive) | > 100 µM (inactive) | > 100 µM (inactive) | – | > 100 µM (inactive) | > 100 µM (inactive) | 67.3 µM (inactive) | > 100 µM (inactive) | > 100 µM (inactive)
4 | Cc1ccc(S(=O)(=O)NNC(C[N+](=O)[O-])c2ccccc2)cc1 (stereo not drawn) | 2.91 µM (inactive) | 15.3 µM (inactive) | 75.5 µM (inactive) | 21.9 µM (inactive) | 26.7 µM (inactive) | 14.1 µM (inactive) | 22.7 µM (inactive) | 3.88 µM (inactive) | 15.9 | 14.4 µM (inactive) | 27.1 µM (inactive) | 0.787 µM (active) | 4.14 µM (inactive) | 3.56 µM (inactive) | 24.2 µM (inactive) | > 100 µM (inactive) | 5.65 µM (inactive) | 15.8 µM (inactive) | 2.94 µM (inactive) | 26.3 µM (inactive)
5 | C=CC1(c2ccc(Br)cc2)OCCCO1 | > 100 µM (inactive) | > 100 µM (inactive) | > 100 µM (inactive) | > 100 µM (inactive) | > 100 µM (inactive) | > 100 µM (inactive) | > 100 µM (inactive) | > 100 µM (inactive) | > 100 | > 100 µM (inactive) | > 100 µM (inactive) | > 100 µM (inactive) | > 100 µM (inactive) | > 100 µM (inactive) | > 100 µM (inactive) | > 100 µM (inactive) | > 100 µM (inactive) | > 100 µM (inactive) | > 100 µM (inactive) | > 100 µM (inactive)
6 | CNNC1=NS(=O)(=O)c2cc(C(=O)OC)c(Cl)cc2S1 | > 10 µM (inactive) | > 10 µM (inactive) | > 10 µM (inactive) | > 10 µM (inactive) | > 10 µM (inactive) | > 10 µM (inactive) | > 10 µM (inactive) | > 10 µM (inactive) | > 10 | > 10 µM (inactive) | > 10 µM (inactive) | > 10 µM (inactive) | > 10 µM (inactive) | > 10 µM (inactive) | > 10 µM (inactive) | > 10 µM (inactive) | > 10 µM (inactive) | > 10 µM (inactive) | > 10 µM (inactive) | > 10 µM (inactive)
7 | C/C(=N/NC(=S)N1CCCCCC1)c1ccccc1O | 5.82 µM (inactive) | 3.03 µM (inactive) | 14.9 µM (inactive) | 12.7 µM (inactive) | 1.99 µM (inactive) | 3.67 µM (inactive) | 16.4 µM (inactive) | 3.31 µM (inactive) | 1.26 | 7.98 µM (inactive) | 3.86 µM (inactive) | 3.31 µM (inactive) | 3.11 µM (inactive) | 2.26 µM (inactive) | 3.58 µM (inactive) | 0.792 µM (active) | 1.49 µM (inactive) | 6.98 µM (inactive) | 51.5 µM (inactive) | > 22 µM (inactive)
8 | O=C1c2ccccc2C2C1C(c1ccccc1)C1(Cc3ccccc3C1=O)C2c1ccccc1 (stereo not drawn) | > 73.6 µM (inactive) | > 100 µM (inactive) | > 100 µM (inactive) | > 100 µM (inactive) | > 100 µM (inactive) | > 100 µM (inactive) | 30.4 µM (inactive) | > 31.7 µM (inactive) | > 100 | > 100 µM (inactive) | > 100 µM (inactive) | 5.53 µM (inactive) | 2.2 µM (inactive) | 3.58 µM (inactive) | > 100 µM (inactive) | 4.85 µM (inactive) | > 100 µM (inactive) | > 100 µM (inactive) | > 100 µM (inactive) | > 100 µM (inactive)
9 | CC1(C)CCCC(C)(C2CCC3(C)C2C(O)CC2C4(C)CCC(O)C(C)(C)C4CCC23C)O1 (stereo not drawn) | > 100 µM (inactive) | 51.1 µM (inactive) | > 100 µM (inactive) | 46.2 µM (inactive) | – | > 100 µM (inactive) | 29.4 µM (inactive) | 61.1 µM (inactive) | > 100 | 80.2 µM (inactive) | 42.9 µM (inactive) | 91.8 µM (inactive) | > 100 µM (inactive) | 93.1 µM (inactive) | 86.5 µM (inactive) | > 100 µM (inactive) | > 100 µM (inactive) | 66.2 µM (inactive) | 3.72 µM (inactive) | > 100 µM (inactive)
10 | CC(=O)Oc1c(-c2ccccc2)oc2ccccc12 | 2.43 µM (inactive) | 2.28 µM (inactive) | 2.06 µM (inactive) | – | 2.42 µM (inactive) | 1.09 µM (active) | 1.57 µM (inactive) | 2.11 µM (inactive) | 1.99 | 1.9 µM (inactive) | 1.36 µM (inactive) | 2.06 µM (inactive) | 1.66 µM (inactive) | 1.89 µM (inactive) | 3.73 µM (inactive) | 1.58 µM (inactive) | 2.02 µM (inactive) | 3.19 µM (inactive) | 1.42 µM (inactive) | 2.07 µM (inactive)
11 | Cc1cccc(C)c1/N=N/c1ccc(O)c(CN(C)C)c1 | 41.8 µM (inactive) | 47 µM (inactive) | > 100 µM (inactive) | > 100 µM (inactive) | 51.6 µM (inactive) | > 100 µM (inactive) | 75.3 µM (inactive) | 89.1 µM (inactive) | > 100 | 22.3 µM (inactive) | 79.4 µM (inactive) | 28.6 µM (inactive) | 68.7 µM (inactive) | 34.8 µM (inactive) | 59.6 µM (inactive) | 34.8 µM (inactive) | 24.7 µM (inactive) | 47.9 µM (inactive) | 0.716 µM (active) | 87.9 µM (inactive)
12 | COC(CNC(=O)C(C)NC(=O)C(C)NC(=O)c1ccccc1)OC (stereo not drawn) | > 100 µM (inactive) | > 100 µM (inactive) | > 100 µM (inactive) | > 100 µM (inactive) | – | > 100 µM (inactive) | > 100 µM (inactive) | > 100 µM (inactive) | > 100 | > 100 µM (inactive) | > 100 µM (inactive) | > 100 µM (inactive) | > 100 µM (inactive) | > 100 µM (inactive) | > 100 µM (inactive) | > 100 µM (inactive) | > 100 µM (inactive) | > 100 µM (inactive) | > 100 µM (inactive) | > 100 µM (inactive)
13 | O=C1CC(c2ccccc2Cl)C2(C(=O)NC(=O)NC2=O)C(c2ccccc2Cl)C1 (stereo not drawn) | 52.6 µM (inactive) | 39.4 µM (inactive) | 38.6 µM (inactive) | 0.356 µM (active) | > 100 µM (inactive) | > 100 µM (inactive) | > 100 µM (inactive) | 54.1 µM (inactive) | > 100 | – | 76.2 µM (inactive) | > 100 µM (inactive) | > 100 µM (inactive) | > 100 µM (inactive) | > 100 µM (inactive) | > 100 µM (inactive) | > 100 µM (inactive) | > 100 µM (inactive) | 29.5 µM (inactive) | 65.8 µM (inactive)
14 | COc1ccc(Nc2cc(O)nc(O)n2)cc1 | > 100 µM (inactive) | > 100 µM (inactive) | > 100 µM (inactive) | – | > 100 µM (inactive) | > 100 µM (inactive) | 84.3 µM (inactive) | > 100 µM (inactive) | > 100 | > 100 µM (inactive) | > 100 µM (inactive) | > 100 µM (inactive) | > 100 µM (inactive) | > 100 µM (inactive) | > 100 µM (inactive) | > 100 µM (inactive) | > 100 µM (inactive) | > 100 µM (inactive) | 24.7 µM (inactive) | > 100 µM (inactive)
15 | CC(C)N(Cc1ccccc1)S(=O)(=O)c1nc(C(C)(C)C)n[nH]1 | > 100 µM (inactive) | > 100 µM (inactive) | > 100 µM (inactive) | > 100 µM (inactive) | > 100 µM (inactive) | > 100 µM (inactive) | > 100 µM (inactive) | > 100 µM (inactive) | > 100 | > 100 µM (inactive) | > 100 µM (inactive) | > 100 µM (inactive) | > 100 µM (inactive) | – | > 100 µM (inactive) | > 100 µM (inactive) | > 100 µM (inactive) | > 100 µM (inactive) | > 100 µM (inactive) | > 100 µM (inactive)
